# Where “and” joins values, the source holds several entries; their conditions need not be identical. Identical values can stand only once. Entries after “also recorded” stand apart in the source; their conditions may differ.
# Key:
# P. aeruginosa cells = assay: microbe, parasite or virus in culture; assay type: cell-based, Pseudomonas aeruginosa; conditions: 13 h
# Protocol: These experiments were carried out in 96 well plates, as described above. […] The 500-fold diluted solution was centrifuged and the cell-free supernatant was analyzed for pyoverdin by fluorescence spectrophotometry in a Synergy H1 microplate reader (BioTek) with excitation at 400 nm and emission at λmax=455 nm. Full emission spectra (430-550 nm) were also recorded using a Perkin Elmer LS50B spectrophotometer.
# As indicated above, genetic manipulations were used in prior work to delete the bfd gene (Δbfd) and evaluate the consequences of inhibiting the BfrB-Bfd interaction in P. aeruginosa.^18 Preventing the BfrB-Bfd interaction in the Δbfd mutant cells dysregulates iron homeostasis by causing the irreversible accumulation of iron in BfrB and the concomitant depletion of free iron levels in the cytosol. […] To analyze the levels of secreted pyoverdin, cells were pelleted and the supernatant was diluted 500-fold prior to measuring the fluorescence intensity at 455 nm (FIG. 7B).
# [1] = test system: iron mobilization from BfrB in P. aeruginosa; assay: Imaging of iron stored in BfrB and analysis of total iron levels; assay type: cell-based, Pseudomonas aeruginosa; conditions: analog 125 μM, M63 + 4 μM Fe
# Protocol: The resultant cell suspensions (5 mL) were mixed with a small volume of a 10 mM working solution of analog 16 in DMSO to give a 125 μM solution and 2% DMSO, or simply 2% DMSO (control). The conical tubes were covered with a sterile air permeable membrane and the cultures incubated at 35° C. and 120 rpm for 6, 9, 12, 15, 18, 21 and 24 h. Prior to separating the cells by centrifugation (4,000 rpm, 15 min), a 100 μL aliquot was withdrawn from each conical tube and serially diluted for plating and enumerating viable cells. The separated pellet was washed with 5 mL of PBS and frozen at −20° C. for subsequent analysis. The corresponding cell free supernatants were used for iron analysis in the spent media, as described below. […]
# To determine the total iron levels of cells treated with analog 16 or DMSO only (control), 5 mL cultures were grown in M63 media supplemented with 4 μM iron, as described above, and analyzed at 12, 15, 21, 24, and 28 h. […] Cell pellets were washed twice with 10 mL of PBS and the total levels of cellular iron were measured using a published protocol.^18, 48 In brief, cell pellets were mixed with 500 μL of freshly prepared digestion reagent (1:1 v/v 1.2 N HCl and 4.5% w/v KMnO4 in water), thoroughly mixed by vortexing, and incubated at 65° C. for 4 h. […]
smiles,measurement,setting,value
"O=C1NC(=O)c2c(NCCCc3cccc(O)c3)cccc21 [Analog 16, 4-((3-(3-Hydroxyphenyl)propyl)amino)isoindoline-1,3-dione]",viability at 125 µM,"P. aeruginosa cells; Pseudomonas aeruginosa, read-out: viable cells relative to untreated control",~30%
same,"pyoverdin secreted, fluorescence normalized to viable cells (CFU/mL), relative to untreated control","P. aeruginosa cells; analog 125 μM, emission 455 nm",~4.5 fold and ~4 fold
same,iron mobilization from BfrB (native PAGE stained with Ferene S),[1],significant inhibition of iron mobilization from BfrB; also recorded: much slower (inhibited) mobilization of iron from BfrB
same,"viable cells, fold fewer than untreated control",[1]; all time points,approximately 2.5 fold

# Source: patent US12251370B2, “Small molecule inhibitors of the BfrB:Bfd interaction” (BOARD OF SUPERVISORS OF LOUISIANA STATE UNIVERSITY AND …, priority 2018, dated 2025)
